For test [1], the system named is db/db mice. The following applies: male db/db mice, 8 mm full thickness skin wound. The method, then:
A full thickness skin wound was prepared on the backs of 9-week-old male db/db mice. The back of each mouse was shaved with an electric shaver under isoflurane anesthesia, and a full thickness skin wound of 8 mm in diameter was created on the back with a disposable biopsy punch. Compound A was administered dropwise (0.04 mL per wound site) at a concentration of 0.5 mM to the wound site once a day over 4 days from the wound creation date and protected with a dressing (Tegaderm Transparent Dressing). The negative control used was a test substance solubilizing solvent (10% Lutrol F127, 2% propylene glycol, 20 mM Tris buffer (pH 8.5)). 1, 4, 7, 9, 11, 15, and 18 days after the wound creation date, the wound site was photographed with a digital camera, and the wound area was calculated using image analysis software. When the wound area of the wound creation date was defined as 100%, the area at each day of photographing was calculated in terms of the percentage (%) of the area of the wound creation date. The test was conducted with 8 animals per group.

The subject of test [2] is SD rats. As to conditions: male SD rats. The procedure:
Pressure ulcer was created by pressure load on the right third trochanters of 8-week-old male SD rats. The skin on the right third trochanter of each rat was shaved with an electric shaver. A pressure of 902.3 to 911.2 g/cm^2 was loaded on the right third trochanter for 24 hours under anesthesia with pentobarbital and allobarbital. 2 days after cancellation of the pressure load, necrotic tissues were surgically removed under isoflurane anesthesia. When the necrotic tissue removal date was defined as day 1, compound A was administered dropwise (0.02 to 0.06 mL per wound site) at a concentration of 0.5 mM to the wound site once a day and protected with gauze and a waterproof film. The negative control used was a test substance solubilizing solvent (10% Lutrol F127, 2% propylene glycol, 20 mM Tris buffer (pH 8.5)). The major axis and minor axis of the wound surface were measured every day with a vernier caliper, and the wound area (major axis×minor axis) was calculated. When the wound area of day 1 was defined as 100%, the calculated area at each day was calculated in terms of the percentage (%) of the area of the wound creation date. The test was conducted with 10 animals per group.

The test system of test [3] is db/db mice. Nature of the test: Test Example 2: wound healing experiment, full thickness skin wound. In kind it is in vivo. As to conditions: male db/db mice; for area under the curve (AUC) of the percent wound area / number of days required for 50% reduction in the percent wound area / 75% healing rate (proportion of individuals that achieved 75% or more reduction in the percent wound area at day 14): full thickness skin wound; for area under the curve (AUC) of the percent wound area: 0.15 mM dropwise; for number of days required for 50% reduction in the percent wound area / 75% healing rate (proportion of individuals that achieved 75% or more reduction in the percent wound area at day 14): compound B 0.15 mM dropwise; for number of days required for 50% reduction in the percent wound area: bFGF sprayed five times (approx. 30 μg), negative control 11.0 days (FIG. 4B); for 75% healing rate (proportion of individuals that achieved 75% or more reduction in the percent wound area at day 14): bFGF spray, negative control 16.7% (FIG. 4C). The procedure: A positive control bFGF (trafermin (genetic recombination) formulation, Fiblast(trademark) spray) approved as a therapeutic agent for pressure ulcer and skin ulcer was sprayed five times (approximately 30 μg was administered per 6 cm in diameter) to the wound site from approximately 5 cm apart according to the dose regimen. […] The test was conducted with 6 animals per group.

Where two headings read alike, the source gives them in different places.

As for `Cc1nc(CC2CCN(c3ccc(-c4ccc(CO)cc4)cc3)CC2)nc(C(=O)NCC(=O)O)c1O` [Compound A], the “time-dependent change in the percent wound area” value in test [1] (0.5 mM dropwise 0.04 mL per wound site once a day over 4 days, days 1-18, vs negative control (FIG. 1)) is listed as “reduced the percent wound area at each point of evaluation, as compared with the negative control”. Besides, the “area under the curve (AUC) of the percent wound area” value (from here on “area … of the percent wound area”) in test [1] (0.5 mM dropwise once a day over 4 days, vs negative control (FIG. 2)) is “low value as compared with AUC of the negative control group”; in test [2] (pressure ulcer, 0.5 mM dropwise once a day, vs negative control (FIG. 6A)) it was “low value as compared with AUC of the negative control group”. The “time dependent change in the percent wound area” value in test [2] (pressure ulcer on right third trochanter, 0.5 mM dropwise 0.02 to 0.06 mL per wound site once a day, vs negative control (FIG. 5)) was “reduced the percent wound area at each point of evaluation, as compared with the negative control”. Also, in test [2] (pressure ulcer, 0.5 mM dropwise once a day, negative control 25.3 days (FIG. 6B)), the “number of days required for healing” value amounted to 21.5 days. For the same molecule, in test [2] (pressure ulcer, 0.5 mM dropwise once a day, vs negative control (FIG. 6C)), the “time dependent change in the healing rate (complete healing rate)” value is “significant elevation in the healing rate as compared with the negative control group”.
As for `Cc1nc(CC2CCN(c3ccc(-c4ccc(C[C@H](C)O)cc4)cc3)CC2)nc(C(=O)NCC(=O)O)c1O` [Compound B, [({5-Hydroxy-2-[(1-{4′-[(2S)-2-hydroxypropyl]biphenyl-4-yl}piperidin-4-yl)methyl]-6-methylpyrimidin-4-yl}carbonyl)amino]acetic acid], the “time dependent change in the percent wound area” value in test [3] (8 mm full thickness skin wound, 0.15 mM dropwise 0.04 mL per wound site at days 1, 2, 4, 7, 10, 14, 17, 22, vs negative control (FIG. 3)) is listed as “reduced the percent wound area at each point of evaluation, as compared with the negative control”. Further, the “area … of the percent wound area” value in test [3] (compared with negative control group (FIG. 4A)) is recorded as “low value as compared with AUC of the negative control group”. The “area … of the percent wound area” value in test [3] (compared with positive control bFGF administration group (FIG. 4A)) is “low value as compared with the positive control bFGF administration group”. Further, in test [3], the “number of days required for 50% reduction in the percent wound area” value amounted to 9.2 days and the “75% healing rate (proportion of individuals that achieved 75% or more reduction in the percent wound area at day 14)” value is listed as 83.3%.
For “bFGF: positive control bFGF (trafermin (genetic recombination) formulation, Fiblast spray) approved as a therapeutic agent for pressure ulcer and skin ulcer”, in test [3], the “number of days required for 50% reduction in the percent wound area” value worked out at 10.2 days and the “75% healing rate (proportion of individuals that achieved 75% or more reduction in the percent wound area at day 14)” value is 50.0%.

Source of the values: patent US20190000847A1, “THERAPEUTIC AGENT FOR A WOUND” (DAIICHI SANKYO COMPANY LIMITED, priority 2015, published 2019).
